Among the data in the OligoGym collection are target mRNA inhibition values, retold here.

Values joined by “and” are separate entries in the source; they are usually repeats but may differ in a detail not shown here. Equal entries are not always repeated. After the bases stand the sugars from the 5' end (letter, count) and the backbone: PS all phosphorothioate, else s phosphorothioate and o phosphodiester by linkage. Methylation of C is not given here. e = 2'-O-(2-methoxyethyl) (MOE); k = constrained ethyl (cEt); d = 2'-deoxy (DNA)

One data set deals with IRF4. The note with it: ASO, MM.1R, 0.0625 µM.
On to “AAGCAGTGATGTCAGG (sugars kkddddddddddkeke, PS)”, for which the target mRNA inhibition was determined as 8%.

Still in this data set, the particulars now being: ASO, MM.1R, 0.074 µM.
Regarding “CAGTTGTAAATGAGTC (sugars k3 d9 k3 e1, PS)”, the target mRNA inhibition is 26%.

The data set is the same for the next values; noted with them: ASO, MM.1R, 0.222 µM.
For “CAGTTGTAAATGAGTC (sugars k3 d9 k3 e1, PS)”, the target mRNA inhibition was 42%.

The data set is the same for the next values; noted with them: ASO, MM.1R, 0.25 µM.
Regarding “AAGCAGTGATGTCAGG (sugars kkddddddddddkeke, PS)”, the target mRNA inhibition worked out at 22%.

The same data set, now with this note: ASO, MM.1R, 0.666 µM.
For the sequence “CAGTTGTAAATGAGTC (sugars k3 d9 k3 e1, PS)”, the target mRNA inhibition amounted to 65%.

The data set is the same for the next values; noted with them: ASO, MM.1R, 1 µM.
Take “AAGCAGTGATGTCAGG (sugars kkddddddddddkeke, PS)”: the target mRNA inhibition was 74% and 76% and 56%.

As for GAAACCCTCATCACCG (sugars k3 d10 k3, PS), the target mRNA inhibition was -38%.

As for “CAGTTGTAAATGAGTC (sugars k3 d9 k3 e1, PS)”, the target mRNA inhibition stood at 68%.

Turning to GCTCAATAATCTCCCA (sugars k3 d10 k3, PS), the target mRNA inhibition was found to be 0%.

As to “AAGCTTGATAAAGGCT (sugars kkdddddddddkdkdk, PS)”, the target mRNA inhibition is -2%.

For “TGTGCTTGCCAAGCCT (sugars kkdddddddddkdkdk, PS)”, the target mRNA inhibition was 23% and 21%.

As for “ATGTGTATTACTCTTA (sugars kkddddddddddkeke, PS)”, the target mRNA inhibition is 47% and 48%.

With AGCAACTAGCAGGGCA (sugars k3 d10 k3, PS), the target mRNA inhibition is -2%.

As to “GAAGTTTACACTGGAT (sugars kddddddddddkekek, PS)”, the target mRNA inhibition worked out at 27%.

For the sequence “GAAGTTTACACTGGAT (sugars kkkddddddddkekek, PS)”, the target mRNA inhibition worked out at 52%.

Turning to ACCCAAATGTGGAGCT (sugars k3 d10 k3, PS), the target mRNA inhibition was determined as 3%.

Turning to “TACTGCTTGAGGTTTT (sugars kdddddddddkekeke, PS)”, the target mRNA inhibition came out at 14%.

As to CGCCCAGGACCCGGCT (sugars k3 d10 k3, PS), the target mRNA inhibition was -1%.

Take AAGGTCTGAGTTGTAC (sugars k3 d10 k3, PS): the target mRNA inhibition is 20%.

Turning to CCAAATTCCCGGAGGA (sugars k3 d10 k3, PS), the target mRNA inhibition was -25%.

As for “CTATAGTGTTCCAGGA (sugars kdddddddddkekeke, PS)”, the target mRNA inhibition was 12%.

Consider TTACCGCATTGCTAGA (sugars k3 d10 k3, PS), for which the target mRNA inhibition is 13% and 26%.

Turning to “TGATAGCTGAGCTGAT (sugars kkddddddddddkeke, PS)”, the target mRNA inhibition is -17%.

In the case of AGGTTGCCGAGATATA (sugars k3 d10 k3, PS), the target mRNA inhibition was 54% and 67%.

Take “ACACTTTTAGAGAGGA (sugars kdddddddddkekeke, PS)”: the target mRNA inhibition was determined as 6%.

Consider CTAAAGTCCCATCGAA (sugars k3 d10 k3, PS), for which the target mRNA inhibition is -2%.

On to “ACGGAAGTTTACACTG (sugars kkkdddddddddkeke, PS)”, for which the target mRNA inhibition stood at 13%.

For “ACGGAAGTTTACACTG (sugars kkdddddddddekeke, PS)”, the target mRNA inhibition is 8%.

“AGTGATGTCAGGTTTT (sugars kkkddddddddkekek, PS)”: the target mRNA inhibition worked out at 37%.

For the sequence GGCCACATTAGCAATT (sugars k3 d10 k3, PS), the target mRNA inhibition was determined as 0%.

On to “GTAGTATGAGAAACGG (sugars kkkdddddddddkeke, PS)”, for which the target mRNA inhibition was 15%.

For ATAACATGAGAGTGTT (sugars k3 d10 k3, PS), the target mRNA inhibition is -17%.

The same data set, now with this note: ASO, MM.1R, 2 µM.
As for “CAGTTGTAAATGAGTC (sugars k3 d9 k3 e1, PS)”, the target mRNA inhibition worked out at 84%.

The same data set, now with this note: ASO, MM.1R, 4 µM.
For “AAGCAGTGATGTCAGG (sugars kkddddddddddkeke, PS)”, the target mRNA inhibition worked out at 87%.

The data set is the same for the next values; noted with them: ASO, SK-MEL-28, 4 µM.
Take CCTCAAAGTCATTGCT (sugars k3 d10 k3, PS): the target mRNA inhibition was 21%.

As to GACTAACTCTCCTGTT (sugars k3 d10 k3, PS), the target mRNA inhibition stood at 17%.

For ACTTAGACATTACTAG (sugars k3 d10 k3, PS), the target mRNA inhibition stood at 20%.

Take TCCTGAATTTACAGCA (sugars k3 d10 k3, PS): the target mRNA inhibition worked out at 48%.

For TCATATGGCTAAACCT (sugars k3 d10 k3, PS), the target mRNA inhibition is 49%.

In the case of GACATACCTACAAGCA (sugars k3 d10 k3, PS), the target mRNA inhibition turned out to be 50%.

AGGAGGGTTGGCCTGC (sugars k3 d10 k3, PS): the target mRNA inhibition came to 4%.

For GTTCAAGTATTAAGAT (sugars k3 d10 k3, PS), the target mRNA inhibition is 29%.

Consider CTTGCCGCTGTCGATC (sugars k4 d8 k4, PS), for which the target mRNA inhibition is 42%.

As for GTTTATTTCCTACTCT (sugars k3 d10 k3, PS), the target mRNA inhibition stood at 16%.

As to ATTTACTGTTACCGAT (sugars k3 d10 k3, PS), the target mRNA inhibition is 29%.

Turning to CAGAAGATCTCTACTG (sugars k3 d10 k3, PS), the target mRNA inhibition came out at 12%.

For ATCAGATGATGTCTAG (sugars k3 d10 k3, PS), the target mRNA inhibition is -3%.

For CTGTAAGGGCTGCTCA (sugars k3 d10 k3, PS), the target mRNA inhibition amounted to 56%.

Regarding ACTAAGGACAGCTGTG (sugars k3 d10 k3, PS), the target mRNA inhibition turned out to be 15%.

With GTCCGGTTAGCTCATC (sugars k3 d10 k3, PS), the target mRNA inhibition was determined as 45%.

Consider TAGAAAGCCCTCACCT (sugars k3 d10 k3, PS), for which the target mRNA inhibition is 5%.

For CATGTAAAGTCTGCTG (sugars k3 d10 k3, PS), the target mRNA inhibition was 58%.

With GTCTCTACCTACTCCA (sugars k3 d10 k3, PS), the target mRNA inhibition amounted to 41%.

On to CAAATTCCCGGAGGAA (sugars k3 d10 k3, PS), for which the target mRNA inhibition came to 5%.

Consider TTAGGAACGAAGAGCA (sugars k3 d10 k3, PS), for which the target mRNA inhibition was 32%.

As for AGGATAATATACCCCA (sugars k3 d10 k3, PS), the target mRNA inhibition amounted to 74%.

With ACCTTTTTTGGCTCCC (sugars k3 d10 k3, PS), the target mRNA inhibition came out at 21%.

CTGGGCCTTGCCAGTG (sugars k3 d10 k3, PS): the target mRNA inhibition was -14%.

For the sequence ACTTTTAGAGAGGAGA (sugars k3 d10 k3, PS), the target mRNA inhibition was determined as 64%.

For the sequence AGTGATGAGATATTCC (sugars k3 d10 k3, PS), the target mRNA inhibition worked out at 59%.

For TCAATGATGGCAGTCT (sugars k3 d10 k3, PS), the target mRNA inhibition came out at 54%.

For TGGAACTCATAGGTGT (sugars k3 d10 k3, PS), the target mRNA inhibition came to 62%.

As to CGGACGCACGGAGAGG (sugars k3 d10 k3, PS), the target mRNA inhibition was determined as 28%.

CTTCTTTATGCGAAGA (sugars k3 d10 k3, PS): the target mRNA inhibition is -5%.

With GTAACTGACACGCACA (sugars k3 d10 k3, PS), the target mRNA inhibition was 51%.

Take CATCATGTAGTTGTGA (sugars k3 d10 k3, PS): the target mRNA inhibition was 41%.

Consider CCGCTGAGAGCCGAGG (sugars k3 d10 k3, PS), for which the target mRNA inhibition is -4%.

On to GGAAGCACTGGCATCG (sugars k3 d10 k3, PS), for which the target mRNA inhibition was found to be 55%.

As to GCATTTGGAAAAAGCC (sugars k3 d10 k3, PS), the target mRNA inhibition worked out at 71%.

As to TGGCACAGTCTTTTCG (sugars k3 d10 k3, PS), the target mRNA inhibition was determined as 28%.

As to AAATCTTCAACAGCAC (sugars k3 d10 k3, PS), the target mRNA inhibition was 45%.

With ATCTATAAGATGTATA (sugars k4 d8 k4, PS), the target mRNA inhibition was found to be 36%.

For GCAAGTGGAGGTCTTT (sugars k3 d10 k3, PS), the target mRNA inhibition is 74% and 79%.

As to GACTATTAGATAAGTA (sugars k3 d10 k3, PS), the target mRNA inhibition stood at 29%.
